# Values of other authors in US11819508B2 (priority 2020, dated 2023).
# Like-named read-outs stand apart in the source and are kept apart here.
# B1: IFN β-1b: cytokine in the interferon family, subcutaneous (protein, UniProt P01574 22-187, looked up, variant C17S)
# Interferon beta: MSYNLLGFLQRSSNFQSQKLLWQLNGRLEYCLKDRMNFDIPEEIKQLQQFQKEDAALTIYEMLQNIFAIFRQDSSSTGWNETIVENLLANVYHQINHLKTVLEEKLEKEDFTRGKLMSSLHLKRYYGRILHYLKAKEYSHCAWTIVRVEILRNFYFINRLTGYLRN
# modifications: lacks N-terminal Met1, non-glycosylated
# notes: cytokine in the interferon family, subcutaneous
# How the values were obtained:
# [1] = in vivo
# Covid-19 = details: subcutaneous; subjects hospitalized with Covid-19
Molecule,solubility (in aqueous solutions),solubility (in water or saline solutions),"solubility (in water, 0.1 N HCl or NaOH, methanol, and ethanol)",half-life [1],clinical improvement as assessed by NEWS 2 and SOFA score and shortened hospital stay (Covid-19)
"2-[[(hexadecyloxy)hydroxyphosphenyl]oxy]-N,N,N-trimethylethylammonium inner salt [Miltefosine]",freely soluble,readily soluble,freely soluble,long half-life,–
B1,–,–,–,–,clinical improvement
